One assay concerns CHO. Nature of the assay: cytotoxicity in TLR9-MyD88 CHO cells, dose response, cytotoxicity control for TLR9-MyD88 binding inhibitor project, cell-based, luminescence (AID 588339).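 Also: CHO cells stably coexpressing TLR9 and MyD88 fusions from primary screen; compound exposure lasted 48 hours before viability readout.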 It is filed as functional, hamster. As to conditions: Cricetulus griseus.
A further assay deals with Beta Lactamase (Pseudomonas aeruginosa, UniProt Q932Y6). Put plainly: beta-lactamase reporter inhibitor potency, dose response, artefact control for TLR9-MyD88 binding inhibitor project, BLA reporter cells, FRET fluorescence (AID 588341).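 Also: cell based assay in CHO-K1 cells stably expressing beta-lactamase.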 It is filed as cell-based.
Beta Lactamase, sequence (Q932Y6 whole entry): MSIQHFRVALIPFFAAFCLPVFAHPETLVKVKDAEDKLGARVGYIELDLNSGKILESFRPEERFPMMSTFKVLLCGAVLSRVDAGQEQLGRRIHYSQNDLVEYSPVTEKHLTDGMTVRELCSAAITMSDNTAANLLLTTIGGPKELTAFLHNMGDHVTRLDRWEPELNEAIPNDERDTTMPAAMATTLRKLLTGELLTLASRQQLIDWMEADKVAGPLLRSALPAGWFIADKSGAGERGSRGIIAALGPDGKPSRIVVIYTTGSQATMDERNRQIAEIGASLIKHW
Another assay addresses Trypsin (Sus scrofa, UniProt P00761). Nature of the assay: porcine trypsin inhibitors, dose response, selectivity assay for Rce1 protease inhibitor project, biochemical, quenched peptide fluorescence, cherry-pick (AID 488789).
The target in another assay is CAAX prenyl protease 1 (Saccharomyces cerevisiae S288c, UniProt P47154). Put plainly: Ste24 protease inhibitors, dose response, biochemical, S. cerevisiae, plate reader, cherry-pick (AID 488815).
CAAX prenyl protease 1, sequence (P47154 whole entry): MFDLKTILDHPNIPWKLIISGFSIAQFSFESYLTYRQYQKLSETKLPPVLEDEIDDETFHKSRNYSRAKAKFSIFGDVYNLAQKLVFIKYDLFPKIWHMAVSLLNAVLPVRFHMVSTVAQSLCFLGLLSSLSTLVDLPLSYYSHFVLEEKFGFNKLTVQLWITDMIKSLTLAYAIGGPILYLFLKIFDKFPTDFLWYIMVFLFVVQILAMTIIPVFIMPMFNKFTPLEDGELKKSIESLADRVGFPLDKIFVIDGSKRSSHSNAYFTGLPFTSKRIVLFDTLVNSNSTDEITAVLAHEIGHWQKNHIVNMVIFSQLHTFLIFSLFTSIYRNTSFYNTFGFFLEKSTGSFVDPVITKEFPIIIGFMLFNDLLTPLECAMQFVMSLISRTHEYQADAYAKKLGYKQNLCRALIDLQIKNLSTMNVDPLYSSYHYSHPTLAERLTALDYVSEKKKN
In another assay the target is CAAX prenyl protease 2 (Homo sapiens, UniProt Q9Y256). Nature of the assay: human Rce1 protease inhibitors, dose response, biochemical, yeast membranes, quenched-peptide fluorescence, cherry-pick (AID 588849).
CAAX prenyl protease 2, sequence (Q9Y256 whole entry): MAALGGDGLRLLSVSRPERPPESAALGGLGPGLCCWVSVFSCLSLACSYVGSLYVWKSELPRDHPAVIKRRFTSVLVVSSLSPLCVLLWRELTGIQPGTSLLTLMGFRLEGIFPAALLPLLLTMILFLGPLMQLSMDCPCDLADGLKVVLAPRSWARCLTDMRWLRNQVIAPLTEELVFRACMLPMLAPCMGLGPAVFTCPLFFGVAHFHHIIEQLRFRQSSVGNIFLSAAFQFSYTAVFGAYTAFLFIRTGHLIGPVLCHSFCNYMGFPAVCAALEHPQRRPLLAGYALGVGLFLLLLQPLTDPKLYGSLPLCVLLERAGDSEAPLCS
The target of assay [1] is Apoptotic protease-activating factor 1 (Homo sapiens, UniProt O14727). It is filed as functional.
Apoptotic protease-activating factor 1, sequence (O14727 whole entry): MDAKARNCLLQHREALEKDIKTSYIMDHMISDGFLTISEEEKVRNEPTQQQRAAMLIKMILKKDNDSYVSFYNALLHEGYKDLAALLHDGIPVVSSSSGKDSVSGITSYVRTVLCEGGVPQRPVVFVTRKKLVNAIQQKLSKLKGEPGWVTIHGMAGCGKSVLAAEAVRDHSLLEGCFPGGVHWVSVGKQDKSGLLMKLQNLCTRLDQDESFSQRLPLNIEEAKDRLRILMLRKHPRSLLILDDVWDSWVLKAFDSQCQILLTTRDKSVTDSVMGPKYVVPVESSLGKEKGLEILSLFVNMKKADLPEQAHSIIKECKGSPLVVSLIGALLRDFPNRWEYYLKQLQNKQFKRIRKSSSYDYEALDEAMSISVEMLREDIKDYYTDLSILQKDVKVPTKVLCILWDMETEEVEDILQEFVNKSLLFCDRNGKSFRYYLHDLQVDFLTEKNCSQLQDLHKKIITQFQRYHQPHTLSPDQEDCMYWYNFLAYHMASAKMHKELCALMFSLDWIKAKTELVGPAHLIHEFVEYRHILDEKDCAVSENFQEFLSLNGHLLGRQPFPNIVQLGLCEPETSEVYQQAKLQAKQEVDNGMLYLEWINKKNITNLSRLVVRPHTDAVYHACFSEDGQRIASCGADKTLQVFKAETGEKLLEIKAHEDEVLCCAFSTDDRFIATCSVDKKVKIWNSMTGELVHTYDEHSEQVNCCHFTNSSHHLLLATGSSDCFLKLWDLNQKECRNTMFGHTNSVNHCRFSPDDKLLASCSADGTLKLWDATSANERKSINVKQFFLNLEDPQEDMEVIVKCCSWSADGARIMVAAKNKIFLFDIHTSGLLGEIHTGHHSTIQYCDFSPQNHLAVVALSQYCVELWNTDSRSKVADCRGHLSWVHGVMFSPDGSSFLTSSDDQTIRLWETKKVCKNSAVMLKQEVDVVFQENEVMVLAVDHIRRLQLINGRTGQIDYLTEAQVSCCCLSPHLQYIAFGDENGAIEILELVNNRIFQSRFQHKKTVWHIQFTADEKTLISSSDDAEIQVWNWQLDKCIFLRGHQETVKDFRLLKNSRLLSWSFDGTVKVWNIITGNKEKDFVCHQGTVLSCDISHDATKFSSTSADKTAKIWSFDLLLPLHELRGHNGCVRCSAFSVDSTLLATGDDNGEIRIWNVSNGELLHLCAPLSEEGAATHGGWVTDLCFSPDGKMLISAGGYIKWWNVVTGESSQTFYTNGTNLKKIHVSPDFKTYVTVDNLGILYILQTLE
Another assay relates to H9c2. Put plainly: cells. It is filed as functional, cell-based. Particulars: Rattus norvegicus, H9c2, Myocardium.
In assay [2] the target is T1, Rac GTPase-activating protein 1 (Homo sapiens, UniProt Q9H0H5).
T1 sequence (Q9H0H5 whole entry): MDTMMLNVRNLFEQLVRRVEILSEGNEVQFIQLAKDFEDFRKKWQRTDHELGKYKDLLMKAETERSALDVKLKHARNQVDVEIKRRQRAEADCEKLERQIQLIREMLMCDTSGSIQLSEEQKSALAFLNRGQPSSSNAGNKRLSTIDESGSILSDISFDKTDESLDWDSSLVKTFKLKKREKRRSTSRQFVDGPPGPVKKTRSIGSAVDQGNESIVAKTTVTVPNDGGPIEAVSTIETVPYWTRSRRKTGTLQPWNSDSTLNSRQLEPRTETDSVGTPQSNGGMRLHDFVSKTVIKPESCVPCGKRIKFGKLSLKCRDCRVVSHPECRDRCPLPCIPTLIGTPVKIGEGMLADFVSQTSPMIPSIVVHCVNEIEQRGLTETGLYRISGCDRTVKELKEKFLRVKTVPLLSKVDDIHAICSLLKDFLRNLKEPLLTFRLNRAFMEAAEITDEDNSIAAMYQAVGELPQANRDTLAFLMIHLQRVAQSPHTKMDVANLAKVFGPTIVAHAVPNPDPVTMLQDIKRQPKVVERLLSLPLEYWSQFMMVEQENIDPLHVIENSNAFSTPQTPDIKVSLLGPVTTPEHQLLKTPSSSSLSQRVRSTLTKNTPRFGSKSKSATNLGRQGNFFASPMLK
Nature of the assay: MgcRacGAP GTPase-activating activity inhibitors, confirmation, biochemical, ADP Hunter fluorescence, primary and confirmatory (AID 624330). It is filed as functional.

For assay [3], the target named is Beta-lactamase (Pseudomonas aeruginosa, UniProt Q79MP6).
Beta-lactamase (Pseudomonas aeruginosa, UniProt Q79MP6), sequence (Q79MP6 whole entry): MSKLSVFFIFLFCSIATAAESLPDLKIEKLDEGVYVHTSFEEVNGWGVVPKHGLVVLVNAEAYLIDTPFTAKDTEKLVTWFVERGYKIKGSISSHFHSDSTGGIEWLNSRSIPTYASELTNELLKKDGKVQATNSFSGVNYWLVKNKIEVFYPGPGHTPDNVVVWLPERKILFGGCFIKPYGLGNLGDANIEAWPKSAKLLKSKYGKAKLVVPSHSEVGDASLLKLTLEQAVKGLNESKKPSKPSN
The target in assay [4] is Beta-lactamase (Salmonella choleraesuis (strain SC-B67), UniProt Q5J463).
Beta-lactamase (Salmonella choleraesuis (strain SC-B67), UniProt Q5J463), sequence (Q5J463 whole entry): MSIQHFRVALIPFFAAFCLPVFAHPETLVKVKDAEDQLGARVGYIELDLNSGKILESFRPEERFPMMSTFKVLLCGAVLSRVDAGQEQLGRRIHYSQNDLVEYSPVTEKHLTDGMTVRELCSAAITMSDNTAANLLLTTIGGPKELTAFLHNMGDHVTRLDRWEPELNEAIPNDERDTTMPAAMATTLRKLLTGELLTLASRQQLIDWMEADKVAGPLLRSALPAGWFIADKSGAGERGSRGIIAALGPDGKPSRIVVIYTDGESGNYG
The target in a further assay is ORF 73 (Human herpesvirus 8, UniProt O40947). Put plainly: inhibitors of C-LANA binding to LBS DNA, dose response, biochemical, fluorescence polarization, cherry-picked samples (AID 504725).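 Also: fluorescence polarization of a labeled DNA duplex reporting LANA DNA binding; potency is for inhibitors that block LANA binding to the DNA.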 Details: species or system Human gammaherpesvirus 8.
ORF 73, sequence (O40947 whole entry): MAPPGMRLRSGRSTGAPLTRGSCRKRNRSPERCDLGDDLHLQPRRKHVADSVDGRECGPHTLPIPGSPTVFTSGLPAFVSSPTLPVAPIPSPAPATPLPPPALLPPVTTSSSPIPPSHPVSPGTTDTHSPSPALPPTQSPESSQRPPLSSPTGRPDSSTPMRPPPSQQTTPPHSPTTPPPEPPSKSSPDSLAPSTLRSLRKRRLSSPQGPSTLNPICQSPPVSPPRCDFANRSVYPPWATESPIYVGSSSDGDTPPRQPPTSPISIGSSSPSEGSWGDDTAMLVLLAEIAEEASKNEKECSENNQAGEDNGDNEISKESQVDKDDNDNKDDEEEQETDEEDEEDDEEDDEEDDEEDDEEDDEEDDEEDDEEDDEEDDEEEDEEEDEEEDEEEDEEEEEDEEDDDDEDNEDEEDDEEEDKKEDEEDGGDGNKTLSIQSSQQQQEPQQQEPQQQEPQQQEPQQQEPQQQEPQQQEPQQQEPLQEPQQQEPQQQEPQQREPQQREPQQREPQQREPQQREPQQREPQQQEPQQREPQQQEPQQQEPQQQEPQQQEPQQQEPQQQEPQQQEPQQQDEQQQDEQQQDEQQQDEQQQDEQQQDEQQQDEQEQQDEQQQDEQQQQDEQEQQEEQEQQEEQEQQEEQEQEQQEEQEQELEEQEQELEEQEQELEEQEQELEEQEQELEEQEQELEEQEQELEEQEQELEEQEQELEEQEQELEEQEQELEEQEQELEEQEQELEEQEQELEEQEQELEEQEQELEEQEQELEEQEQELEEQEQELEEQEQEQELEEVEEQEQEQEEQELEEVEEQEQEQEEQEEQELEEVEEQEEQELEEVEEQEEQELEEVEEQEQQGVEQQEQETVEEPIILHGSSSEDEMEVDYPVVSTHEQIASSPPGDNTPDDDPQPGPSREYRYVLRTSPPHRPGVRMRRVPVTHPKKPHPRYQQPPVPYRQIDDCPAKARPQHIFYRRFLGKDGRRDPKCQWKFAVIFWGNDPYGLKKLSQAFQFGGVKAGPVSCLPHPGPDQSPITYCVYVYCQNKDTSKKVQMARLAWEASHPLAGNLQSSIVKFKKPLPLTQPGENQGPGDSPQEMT
The target in assay [5] is UDP-galactopyranose mutase (Mycobacterium tuberculosis, UniProt P9WIQ1). Nature of the assay: Inhibitors of Mycobacterium tuberculosis UDP-galactopyranose mutase (UGM) enzyme Measured in Biochemical System Using Plate Reader - 2105-02_Inhibitor_Dose_CherryPick_Activity. [Related pubchem assays (depositor defined):AID504439].
UDP-galactopyranose mutase, sequence (P9WIQ1 whole entry): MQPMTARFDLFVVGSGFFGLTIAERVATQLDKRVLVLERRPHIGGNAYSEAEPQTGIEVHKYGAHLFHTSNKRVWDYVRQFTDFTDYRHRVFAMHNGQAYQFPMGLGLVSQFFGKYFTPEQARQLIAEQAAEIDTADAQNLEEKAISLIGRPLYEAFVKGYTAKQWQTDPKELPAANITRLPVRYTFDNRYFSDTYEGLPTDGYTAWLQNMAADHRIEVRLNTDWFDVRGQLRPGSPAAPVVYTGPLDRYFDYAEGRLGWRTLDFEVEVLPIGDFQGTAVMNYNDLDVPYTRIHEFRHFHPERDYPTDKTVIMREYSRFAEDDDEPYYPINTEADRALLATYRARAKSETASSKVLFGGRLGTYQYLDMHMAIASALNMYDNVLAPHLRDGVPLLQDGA
The target in another assay is Keap1/Nrf2 (Homo sapiens, UniProt Q14145). Put plainly: Keap1-Nrf2 protein-protein interaction inhibitors, dose response, biochemical, fluorescence polarization, cherry-picked samples (AID 588683). (In general: Fluorescence polarisation rises when a labelled molecule tumbles more slowly, as on binding a larger partner.)
Assay [6] can be described thus: SFLLRN-induced P-Selectin Platelet Surface Expression Measured in Cell-Based System Using Flow Cytometry - 2016-03_Inhibitor_Dose_DryPowder_Activity_Set3. [Related pubchem assays (depositor defined):AID1678]. It is filed as functional. In general terms: Flow cytometry measures light scatter and fluorescence of single cells or particles in a stream.
A short description of assay [7]: Luminescence Cell-Based Dose Response Follow up to Identify Inhibitors of Platelet Dense Granule Release. [Related pubchem assays (depositor defined):AID1663, AID1678, AID1889, AID2519]. It is filed as functional.
Assay [8] addresses T2, Mannose-6-phosphate isomerase (Homo sapiens, UniProt P34949).
T2 sequence (P34949 whole entry): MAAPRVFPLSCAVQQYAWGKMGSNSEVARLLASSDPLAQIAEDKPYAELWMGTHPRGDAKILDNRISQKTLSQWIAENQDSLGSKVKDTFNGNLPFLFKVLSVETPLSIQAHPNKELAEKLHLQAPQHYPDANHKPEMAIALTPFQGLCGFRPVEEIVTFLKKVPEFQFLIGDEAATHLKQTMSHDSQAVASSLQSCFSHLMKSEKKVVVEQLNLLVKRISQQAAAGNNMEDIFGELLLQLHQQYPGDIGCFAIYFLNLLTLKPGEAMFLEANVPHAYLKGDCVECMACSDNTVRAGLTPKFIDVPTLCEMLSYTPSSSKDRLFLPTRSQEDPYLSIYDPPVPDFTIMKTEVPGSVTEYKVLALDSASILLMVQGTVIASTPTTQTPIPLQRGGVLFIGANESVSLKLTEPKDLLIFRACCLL
Nature of the assay: PMI enzyme inhibitors, confirmation, biochemical, fluorescence intensity (AID 1535).

Assay [9] can be described thus: growth induction of Burl-1 ts yeast mutant, dose response, counter-screen for SUMOylation pathway inhibitor project, whole organism, S. cerevisiae, luminescence (AID 463199). It is filed as functional. (The purpose of a counterscreen is to sort out artefacts and off-target activity.)
The nature of assay [10]: inhibitors of Trypanosoma cruzi host-cell infection, confirmation, beta-gal luminescence, NIH3T3 host cells (AID 2630). It is filed as functional, cell-based. As to conditions: Mus musculus.
Assay [11] has as its system Candida albicans. Nature of the assay: growth inhibition of azole-resistant C. albicans, dose response, CaCi-8 strain, Alamar Blue, dry powder, set 3 (AID 488905). It is filed as functional, organism-based.
Assay [12] concerns Candida albicans. Nature of the assay: reversal of fluconazole resistance in C. albicans, dose response, CaCi-2 strain, Alamar Blue, dry powder, set 3 (AID 488907). It is filed as functional, organism-based.
The test system of the next assay is HEK293. Nature of the assay: inhibitors of LMP1-driven NF-kB reporter, dose response, cell-based, HEK293, luciferase, cherry-pick (AID 588343). It is filed as functional. As to conditions: Homo sapiens.
Assay [13] addresses T3, Short transient receptor potential channel 4 (Mus musculus, UniProt Q9QUQ5).
T3 sequence (Q9QUQ5 whole entry): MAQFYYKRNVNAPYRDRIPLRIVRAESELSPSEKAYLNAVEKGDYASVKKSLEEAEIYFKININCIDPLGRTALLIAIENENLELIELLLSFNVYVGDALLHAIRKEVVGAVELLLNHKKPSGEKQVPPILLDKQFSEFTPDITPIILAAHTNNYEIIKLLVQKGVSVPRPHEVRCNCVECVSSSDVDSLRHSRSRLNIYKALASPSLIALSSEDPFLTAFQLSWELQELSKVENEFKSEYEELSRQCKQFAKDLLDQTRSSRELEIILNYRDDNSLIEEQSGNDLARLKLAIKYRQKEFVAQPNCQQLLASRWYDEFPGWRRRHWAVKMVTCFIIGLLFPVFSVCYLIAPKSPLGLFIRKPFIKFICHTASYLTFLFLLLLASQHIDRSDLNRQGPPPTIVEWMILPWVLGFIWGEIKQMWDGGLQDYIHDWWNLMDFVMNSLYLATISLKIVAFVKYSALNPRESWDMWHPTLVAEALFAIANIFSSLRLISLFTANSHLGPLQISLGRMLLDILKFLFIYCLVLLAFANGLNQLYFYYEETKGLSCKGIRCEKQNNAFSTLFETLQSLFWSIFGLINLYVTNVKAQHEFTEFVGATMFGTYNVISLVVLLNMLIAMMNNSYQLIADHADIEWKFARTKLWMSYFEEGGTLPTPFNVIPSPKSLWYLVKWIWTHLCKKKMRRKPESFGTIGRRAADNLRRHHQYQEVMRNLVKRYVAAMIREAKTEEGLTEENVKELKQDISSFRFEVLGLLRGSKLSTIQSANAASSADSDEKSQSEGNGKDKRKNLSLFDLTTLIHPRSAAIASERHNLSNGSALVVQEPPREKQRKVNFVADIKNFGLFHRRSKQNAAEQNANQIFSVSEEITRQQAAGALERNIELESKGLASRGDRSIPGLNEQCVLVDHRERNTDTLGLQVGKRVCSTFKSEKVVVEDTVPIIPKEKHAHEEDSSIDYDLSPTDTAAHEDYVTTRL
Put plainly: mouse TRPC4 channel inhibitors, dose response, cell-based, HEK293 TRPC4/mu-opioid, Fluo-4 calcium (AID 434942).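 Also: potency of inhibitors blocking the TRPC4 calcium response.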 It is filed as functional.

In assay [14] the target is Beta-2 adrenergic receptor (Homo sapiens, UniProt P07550). Nature of the assay: beta2AR agonists driving receptor internalization, dose response, cell-based, FAP fluorogen, flow cytometry, cherry pick 1 (AID 588763). It is filed as functional.
Beta-2 adrenergic receptor, sequence (P07550 whole entry): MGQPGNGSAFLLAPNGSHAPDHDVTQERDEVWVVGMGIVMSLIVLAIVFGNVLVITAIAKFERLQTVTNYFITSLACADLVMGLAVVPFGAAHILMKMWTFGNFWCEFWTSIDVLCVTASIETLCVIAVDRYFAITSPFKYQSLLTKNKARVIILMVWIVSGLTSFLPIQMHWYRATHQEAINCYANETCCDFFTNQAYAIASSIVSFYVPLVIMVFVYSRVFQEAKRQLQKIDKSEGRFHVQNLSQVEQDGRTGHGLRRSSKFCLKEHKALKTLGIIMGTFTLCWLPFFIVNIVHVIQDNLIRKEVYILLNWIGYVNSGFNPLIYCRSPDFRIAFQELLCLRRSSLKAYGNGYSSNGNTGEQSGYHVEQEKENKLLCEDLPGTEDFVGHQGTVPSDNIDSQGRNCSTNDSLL

Each structure is given as a SMILES string. The source made the active and inactive calls.

We go through eleven compounds from ChEMBL document CHEMBL1201862, “PubChem BioAssay data set” (2004).

Trypsin, sequence (P00761 whole entry): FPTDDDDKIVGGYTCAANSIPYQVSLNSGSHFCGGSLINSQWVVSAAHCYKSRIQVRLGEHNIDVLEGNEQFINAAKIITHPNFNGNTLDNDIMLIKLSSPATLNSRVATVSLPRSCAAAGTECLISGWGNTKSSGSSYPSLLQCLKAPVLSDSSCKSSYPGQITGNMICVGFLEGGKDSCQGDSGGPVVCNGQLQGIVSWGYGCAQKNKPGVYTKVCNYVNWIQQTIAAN

On to `COc1ccccc1N1N=C(c2cccs2)CC1c1ccccc1` (stereo not drawn), for which the IC50 (in general, the concentration at which inhibition is half-maximal) was > 49.7 µM (inactive) in the assay with CHO and 3.62 µM (active) at Beta Lactamase.

Turning to `COc1ccc(-n2c(N)c(C(=O)NCc3ccco3)c3nc4ccccc4nc32)c(OC)c1`, the AC50 (commonly the midpoint of the concentration-response curve, whichever way the signal moves) is 2.87 µM (active) on Trypsin, 5.18 µM (active) on CAAX prenyl protease 1 and 2.3 µM (active) at CAAX prenyl protease 2.

As to `COc1ccc(NCc2cc3cc(OC)ccc3nc2O)cc1`, the figures for the IC50 (in [1]; with H9c2; in assay [2]) were 62.5 µM (active), > 79 µM (inactive) and 89.3 µM (active), respectively.

As to `Nc1cccc(N2C(=O)c3cccc4c(N)ccc(c34)C2=O)c1`, the values for the IC50 on Beta-lactamase [3] and at Beta-lactamase [4] were 31 µM (inactive) and 16.8 µM (inactive), respectively. Moreover, the AC50 is 6.98 µM (active) on ORF 73, 3.13 µM (active) in [5] and 4.29 µM (active) at Keap1/Nrf2.

For `CC(=O)Nc1cccc(NC(=O)c2ccccc2Cl)c1`, the AC50 in assay [6] was 53.9 µM (active). Also, in [7], the EC50 (in general, the concentration at which the effect is half-maximal) was 147 µM (active).

Consider `O=c1c2ccccc2[nH]n1-c1ccccc1`, for which the IC50 in assay [8] is 44.9 µM (active).

Turning to `CSc1ccc(Cl)c(C(=O)Nc2ccc(N3CCOCC3)cc2)c1`, in assay [9], the AC50 is 57.3 µM (active).

In the case of `Cn1cc(CN2CCCC(C(=O)c3ccc(C(C)(C)C)cc3)C2)cn1` (stereo not drawn), the EC50 in assay [10] was 1.25 µM (active).

`N#Cc1ccc(C(=O)N2CCN(c3ccccn3)CC2)cc1`: the AC50 was 128 µM (active) in the assay with Candida albicans [11] and 2.66 µM (active) in the assay on Candida albicans [12].

For the compound `Brc1ccc2ncnc(NCc3ccccc3)c2c1`, the concentration at half-maximal activity (AC50) in the assay on HEK293 was 5.03 µM (active).

`Oc1ccccc1Nc1nc(NCc2ccco2)c2ccccc2n1`: the EC50 in assay [13] is 2.11 µM (active); in assay [14] it was 492 nM (active).
